Assay results taken from patent publication US11040949B2, “Compounds affecting pigment production and methods for treatment of bacterial diseases” (Versitech Limited, priority 2017, dated 2021).
Converted amounts (≈) assume the structure as drawn.

What was measured:
[1] = test system: methicillin-resistant S. aureus (MRSA); assay: MRSA skin infection, wound closure; type: in vivo, mice; settings: for wound healing compared with mupirocin and linezolid: 30 mg/kg oral BID for 7 days
Description: FIG. 11B are photos from the top view of mice with skin infection caused by MRSA before (at Day 0) and after different treatments (at Day 7): top left received 2% mupirocin via topical BID for 7 days; top right received 100 mg/kg linezolid via oral BID for 7 days; bottom received 30 mg/kg IM032 via oral BID for 7 days.
Visual wound healing/closure in different treatment groups of mice can be observed in FIG. 11B.

[2] = test system: MRSA USA 300 ATCC BAA-1717; assay: Mouse (LD0-20) bacteremia model; type: in vivo, BALB/c mice; settings: IM032 0.3-30 mg/kg PO BID for 7 days; sacrificed at 168 h (Day 7)
Description: Efficacy of IM032 in a Mouse (LD0-20) Bacteremia Model Infected with Methicillin-Resistant Staphylococcus (MRSA USA300) (BAA-1717)
A bacterial strain, USA 300 MRSA BAA-1717, was used to infect BALB/c (female). Test animals were intravenously (IV) inoculated with MRSA ATCC BAA-1717 at a target density of 1×10^6 CFU/mouse. Test substance, IM032 at 0, 0.3, 1, 3, 10, and 30 mg/kg, was administered orally (PO) twice daily (BID) for a total of 7 dosing days.
The reference agents, vancomycin at 3 mg/kg was administered IV once (QD) at 1 h after infection for 7 consecutive days.
With reference to FIG. 9, the animals were IV inoculated with MRSA USA 300 ATCC BAA-1717 at 1.02×10^6 CFU/mouse. IM032 at 0.3, 1, 3, 10, and 30 mg/kg were orally (PO) administrated twice daily (BID) at 1 and 7 h after the infection on Day 1, and then twice daily at 6-hour intervals in the next 6 days for a total of 7 days of dosing. Vancomycin, at 3 mg/kg, was administered intravenously (IV) at 1 h after the infection on Day 1 and then once a day in the next 6 days for a total of 7 days of dosing. […] Statistical significance compared to the respective vehicle control was determined by unpaired student t-tests. […]
With reference to FIG. 10, bacterial density in lung and liver were determined. […] Statistical significance compared to the respective vehicle control was determined by unpaired student t-tests. […]

[3] = Solubility in simulated gastric and intestinal fluids; type: physicochemical
Text: The following table (Table 4) illustrates the solubility of two different compounds, NP16-XL-016 (hereinafter as “IM032”) and NP16-XL-061 (hereinafter as “IM032-C”), in two solutions with different pH values simulating the pH of gastric juice and human intestinal fluid using HCl and phosphate buffer respectively.

[4] = Solubility in commonly used solvents for oral administration; type: physicochemical
S. aureus USA300 = assay: In vitro staphyloxanthin production inhibition by NP-16 analogues; type: cell-based, Staphylococcus aureus; settings: S. aureus USA300, methanol extract OD 450 nm, 300 nM to 700 nM
Description: Evaluation of NP-16 analogues in Staphyloxanthin production
The in vitro pigment inhibition studies were performed by S. aureus USA300 cultured in BHI with or without the presence of inhibitor compounds at 37° C. and 250 rpm for 36-48 hours. The bacteria were washed twice with PBS prior to the staphyloxanthin purification with methanol. The OD of the extracts were monitor at 450 nm using DTX880 multi-plate reader spectrophotometer (Beckman). The concentration range tested for the compounds were between 300 nM to 700 nM, and control groups were added with equal volume of DMSO.
The cytotoxicity of NP-16 and some of its analogues was tested against Raw 264.7 cells, and the cell tolerance of each compounds were documented in Table 3. Along with the in vitro staphyloxanthin production of the NP-16 analogues were being tested, the compounds can exert staphyloxanthin production inhibition. The staphyloxanthin from the overnight-cultured bacteria were extracted with methanol and quantified in via spectrophotometry. The results were presented in relative ratio to NP-16 in both the inhibition ratio as well as the TC50 (concentration for decreasing cell viability by 50%) in Table 3 (sample names correspond to those listed in Table 1).

O=C(/C=C/c1ccccc1Br)Nc1ccc(S(=O)(=O)N2CCCCC2)cc1 [NP16-XL-016, 3-(6-bromophenyl)-N-[4-(1-piperidine-1-sulfonyl)phenyl]-acrylamide]
wound healing compared with mupirocin and linezolid ([1]; listed as ALS-4): statistically significant improvement in wound healing
wound healing compared with mupirocin and linezolid ([1]; listed as IM032): best visual wound healing
percentage of wound closure ([1]; 30 mg/kg oral twice a day, Day 7): 63.8%
bacteria count across major organs [2]: statistically significant reduction in bacteria count across major organs
solubility ([3]; 0.1N HCl + 0.1% Tween 80 (simulated gastric fluid), pH 2, aqueous with cosolvent or surfactant or cyclodextrin, read-out: Solubility in pH 2 (0.1N HCl + 0.1% Tween 80)-simulating human stomach): 0.00203 mg/mL
solubility ([3]; pH 7.4, aqueous with cosolvent or surfactant or cyclodextrin, read-out: Solubility in pH 7.4 (KH2PO4 + 0.1% Tween 80)-simulating human intestine): 0.00174 mg/mL
solubility higher than that of IM032-Cl ([3]; two biorelevant media, pH 2 and pH 7.4): > 20 ×
solubility ([4]; 1:1 Labrasol ALF/PEG300, organic solvent or mixture): 16.1 mg/mL (≈ 35.8 mM)
solubility ([4]; 1:1 Labrasol ALF/PEG400, organic solvent or mixture): > 15 mg/mL
solubility ([4]; Labrasol ALF, oil or lipid): 11.8 mg/mL (≈ 26.3 mM)
solubility ([4]; PEG300, organic solvent or mixture): > 20 mg/mL
solubility ([4]; PEG400, organic solvent or mixture): > 20 mg/mL
Relative ratio to NP16 based on inhibition ratio (S. aureus USA300): 2.71
